Data set [1] has as its system HIV-1. The conditions noted are these: n = 102 newly diagnosed treatment-naive patients.
Data set [2] is described as follows: clinical. The conditions noted are these: human.
A short description of data set [3]: clinical. The settings on record: human, po.
For data set [4] the following is noted: cited from earlier work; for Mean systemic tenofovir exposure: TAF group versus TDF group of the Phase II study.
Data set [5] is described as follows: Bioequivalence study: plasma pharmacokinetics. The settings on record: single oral dose D/C/F/TAF 800/150/200/10 mg (test), fed, standardized regular breakfast.
A short description of data set [6]: Food-effect bioavailability study: plasma pharmacokinetics.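 As to all read-outs here: volunteers randomized to two single-dose treatment sessions separated by a washout of at least 7 days, dosing preceded by an overnight fast of at least 10 h.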 The settings on record: for AUCinf geometric mean ratio (90% CI), fasted (test) vs fed (reference) / AUClast geometric mean ratio (90% CI), fasted (test) vs fed (reference) / Cmax geometric mean ratio (90% CI), fasted (test) vs fed (reference) / AUClast, mean (SD) / t1/2term, mean (SD) / AUCinf, mean (SD) / Cmax, mean (SD): single oral dose D/C/F/TAF 800/150/200/10 mg.

The conditions of data set [7]: human, in vivo.
For data set [8] the following is noted: human, in vivo. The source holds these as a separate data set.
The mark [9] stands for this setting: subset of 32 treatment-naive HIV-1-infected adults.
The mark [10] stands for this setting: administered as D/C/F/TAF, fed = standardized high-fat breakfast.
Where [11] appears, read: fed, standardized high-fat breakfast (reference).

SMILES strings stand for the structures. Where “and” joins values, the source holds several entries; their conditions need not be identical. Equal entries are not always repeated. Structures can show the parent of a compound that is named as a salt. Where two headings read alike, the source gives them in different places. Marks after values point to notes of the source that are not given here.

`CC(C)CN(C[C@@H](O)[C@H](Cc1ccccc1)NC(=O)O[C@H]1CO[C@H]2OCC[C@H]21)S(=O)(=O)c1ccc(N)cc1` [DRV, darunavir]: in data set [1], the “Genotypic susceptibility at screening/baseline, patients” value is “(100) %”. In data set [2] (in vivo), the AUC(0-inf) (commonly the area under the concentration-time curve extrapolated to infinity) came out at 85200 ng·h/mL and the Cmax (as a rule, the highest concentration seen after dosing) is 6620 ng/mL.
Consider `CC(C)OC(=O)[C@H](C)N[P@](=O)(CO[C@H](C)Cn1cnc2c(N)ncnc21)Oc1ccccc1` [TAF, tenofovir alafenamide], for which, in data set [3] (in vivo), the Tmax – broadly, the time at which the peak concentration occurs – amounted to 0.5 h. Further, in data set [2] (in vivo), the AUC(0-inf) worked out at 141 ng·h/mL; the AUC(0-t) – broadly, the area under the concentration-time curve up to a stated or last time point – turned out to be 132 ng·h/mL; the concentration peaked (Cmax) at 120 ng/mL; the Tmax worked out at 1.01 h. The “Lower mean systemic tenofovir exposure than in the TDF group” value in data set [4] (Phase II study) was “greater than 90%”. Moreover, the “Mean systemic tenofovir exposure” value in data set [4] is listed as 339 ng·h/mL. In data set [4] (setting [9]), the “Mean plasma exposure (AUClast)” value is 130.5 ng·h/mL and the Median plasma half-life was 0.45 h. The “t1/2term, mean” value in data set [5] turned out to be 0.3 h. Besides, the “AUClast, fasted versus fed conditions (90% CI of the GMR within 80% to […])” value in data set [6] (administered as D/C/F/TAF) is on record as “comparable under both conditions”. Further, in data set [6] (setting [10]), the “AUCinf lower in fasted compared with fed conditions” value was determined as 20% and the “Cmax higher in fasted compared with fed conditions” value came to 82%. Moreover, in data set [6], the “AUCinf geometric mean ratio (90% CI), fasted (test) vs fed (reference)” value is listed as 80.38^l (73.04-88.45)^ %; the “AUClast geometric mean ratio (90% CI), fasted (test) vs fed (reference)” value (from here on “AUClast geometric mean ratio (90% CI)”) is 89.54 (81.20-98.72) %; the “Cmax geometric mean ratio (90% CI), fasted (test) vs fed (reference)” value was 182.29 (140.50-236.50) %. In addition, in data set [6] (fasted (test)), the “AUClast, mean (SD)” value was 106 (44.7) ng · h/mL and the “t1/2term, mean (SD)” value is on record as 0.3 (0.2) hours. In data set [6] (setting [11]), the “AUCinf, mean (SD)” value is on record as 125 (57.3) ng · h/mL; the “Cmax, mean (SD)” value is given as 107 (65.2) ng/mL; the “t1/2term, mean (SD)” value was 0.5 hours and 0.5 (0.1) hours.
Consider `CC(C)c1nc(CN(C)C(=O)N[C@@H](CCN2CCOCC2)C(=O)N[C@H](CC[C@H](Cc2ccccc2)NC(=O)OCc2cncs2)Cc2ccccc2)cs1` [COBI, cobicistat], for which, in data set [3] (plasma), the Tmax turned out to be 3 h. In data set [2] (plasma, oral), the AUC(0-inf) is 6870 ng·h/mL, the AUC(0-t) came to 6760 ng·h/mL, the Cmax worked out at 881 ng/mL and the Tmax was found to be 4 h. The “t1/2term, mean” value in data set [5] amounted to 3.7 h. Moreover, in data set [6] (setting [10]), the “AUCinf lower in fasted compared with fed conditions” value is recorded as 16%, the “AUClast lower in fasted compared with fed conditions” value was 29% and the “Cmax lower in fasted compared with fed conditions” value was 23%. In addition, in data set [6], the “AUCinf geometric mean ratio (90% CI), fasted (test) vs fed (reference)” value is reported as 84.39^k (68.52-103.95)^ %; the “AUClast geometric mean ratio (90% CI)” value is 70.90 (51.13-98.30) %; the “Cmax geometric mean ratio (90% CI), fasted (test) vs fed (reference)” value is reported as 76.96 (55.70-106.33) %. For the same compound, the “t1/2term, mean (SD)” value in data set [6] (fasted (test)) is 4.1 (0.9) hours. Further, in data set [6] (setting [11]), the “AUCinf, mean (SD)” value is listed as 6258 (2268) ng · h/mL; the “AUClast, mean (SD)” value was 6168 (2260) ng · h/mL; the “Cmax, mean (SD)” value is 711 (164) ng/mL; the “t1/2term, mean (SD)” value is 3.9 (0.6) hours.
Turning to `CC(C)OC(=O)OCOP(=O)(CO[C@H](C)Cn1cnc2c(N)ncnc21)OCOC(=O)OC(C)C` [TDF, tenofovir disoproxil fumarate], in data set [1], the “Genotypic susceptibility at screening/baseline, patients” value is “(100) %”. Besides, the “Mean systemic tenofovir exposure” value in data set [4] is 3737 ng·h/mL.
In the case of `Nc1nc(=O)n([C@@H]2CS[C@H](CO)O2)cc1F` [FTC, emtricitabine], the “Cmax higher in fasted compared with fed conditions” value in data set [7] is on record as 26%. Also, in data set [7] (po), the “AUClast geometric mean ratio (90% CI)” value is listed as 100.12 (96.29-104.10) %. Also, in data set [8], the “AUCinf geometric mean ratio, test vs reference” value worked out at 100.13%; the “AUClast geometric mean ratio, test vs reference” value is reported as 100.04%; the “Cmax geometric mean ratio, test vs reference” value is given as 99.32%; the “t1/2term, mean” value is 17.0 h. Besides, in data set [8] (po), the “t1/2term, mean” value came out at 16.5 h. Moreover, the “Genotypic susceptibility at screening/baseline, patients” value in data set [1] is given as “(98) %”. For the same compound, in data set [2] (in vivo), the AUC(0-inf) amounted to 11900 ng·h/mL, the AUC(0-t) was 11700 ng·h/mL and the highest level (Cmax) was 2050 ng/mL.

The values are drawn from US10786518B2, “Compositions and methods of treating HIV” (priority 2017, dated 2020).
